According to PubChem BioAssay (NCI):
Several values for one entry are separate records, joined by “and”; a condition that tells them apart may be missing. Identical values can stand only once.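 Five compound concentrations were applied to cells in 96-well plates for 48 hours; endpoints were derived by simple linear interpolation of the resulting dose-response curve. GI50 marks 50% less growth. Definition used: TGI = concentration required for complete inhibition of growth.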

What was measured:
Experiment in all cases: NCI-60 cell line screen, 48 h
SNB-75 CNS = tested on: SNB-75 CNS
TK-10 renal = tested on: TK-10 renal
MDA-MB-435 = tested on: MDA-MB-435
OVCAR-4 ovarian = tested on: OVCAR-4 ovarian
MDA-MB-231 breast = tested on: MDA-MB-231 breast
CCRF-CEM leukemia = tested on: CCRF-CEM leukemia
SNB-19 CNS = tested on: SNB-19 CNS
MCF7 breast = tested on: MCF7 breast
KM12 colon = tested on: KM12 colon
NCI-H23 lung = tested on: NCI-H23 lung

Compound | GI50 (SNB-75 CNS) | TGI (SNB-75 CNS) | GI50 (TK-10 renal) | TGI (TK-10 renal) | GI50 (MDA-MB-435) | TGI (MDA-MB-435) | GI50 (OVCAR-4 ovarian) | TGI (OVCAR-4 ovarian) | GI50 (MDA-MB-231 breast) | TGI (MDA-MB-231 breast) | GI50 (CCRF-CEM leukemia) | TGI (CCRF-CEM leukemia) | GI50 (SNB-19 CNS) | TGI (SNB-19 CNS) | GI50 (MCF7 breast) | TGI (MCF7 breast) | GI50 (KM12 colon) | TGI (KM12 colon) | GI50 (NCI-H23 lung) | TGI (NCI-H23 lung)
COc1ccc2c(c1)c(-c1nc(-c3c[nH]c4ccncc34)cs1)cn2C | 1.52 µM | 2.91 µM | 1.88 µM | 3.39 µM | 1.59 µM | 2.96 µM | 1.89 µM | 3.71 µM | 1.45 µM | 2.95 µM | 1.83 µM | 3.64 µM | 1.85 µM | 3.36 µM | 1.47 µM | 3.09 µM | 1.73 µM | 3.2 µM | 1.82 µM | 3.39 µM
CNC(=O)c1cc(Oc2ccc(NC(=O)Nc3ccc(Cl)c(C(F)(F)F)c3)c(F)c2)ccn1 | 1.71 µM and 1.67 µM | 7.01 µM and > 10 µM | 3.5 µM and 3.03 µM | 27.8 µM and > 10 µM | 1.56 µM and 1.52 µM | 4.8 µM and 4.85 µM | 2.56 µM and 2.74 µM | 19.7 µM and > 10 µM | 1.22 µM and 1.26 µM | 4.44 µM and 4.92 µM | 2.24 µM and 2.51 µM | 7.01 µM and 8.88 µM | 4.27 µM and 4.06 µM | > 41.6 µM | 2.12 µM and 2.29 µM | 6.88 µM and 9.02 µM | 1.9 µM and 1.49 µM | 7.86 µM and > 10 µM | 1.42 µM and 1.44 µM | 6.29 µM and 7.14 µM
COCc1c(-c2cc3cc(C)cc(OC)c3s2)c2c(N)ncnn2c1CN1CCNC(=O)C1 | 2.13 µM | 17.8 µM | 3.64 µM | 30.6 µM | 4.29 µM | 24 µM | 1.88 µM | 61.1 µM | 6.11 µM | 61.4 µM | 3.42 µM | 53.8 µM | 8.21 µM | > 100 µM | 3.82 µM | 33.6 µM | 5.62 µM | 77.6 µM | 4.45 µM | 70.7 µM
COc1ccc2c(c1)nc(C(=O)c1ccco1)c(C(F)(F)F)[n+]2[O-] | 51.4 µM | > 100 µM | 86.8 µM | > 100 µM | > 100 µM | > 100 µM | > 100 µM | > 100 µM | > 100 µM | > 100 µM | > 100 µM | > 100 µM | > 100 µM | > 100 µM | > 100 µM | > 100 µM | > 100 µM | > 100 µM | > 100 µM | > 100 µM
CCN(Cc1ccccc1)C1CCN(Cc2cc(Br)ccc2O)CC1 | 27.5 µM | > 100 µM | > 100 µM | > 100 µM | 30.2 µM | > 100 µM | 33.7 µM | > 100 µM | 31.6 µM | > 100 µM | 39.3 µM | > 100 µM | 57.2 µM | > 100 µM | 27.8 µM | > 100 µM | 42.3 µM | > 100 µM | 34.9 µM | > 100 µM
CCOC(=O)Oc1cc2c(c(OC)c1OC)-c1ccc(OC)c(=O)cc1C(NC(C)=O)CC2 (centres undefined) | – | > 16.9 µM | – | > 100 µM | – | 0.0168 µM | – | > 100 µM | – | > 90.2 µM | – | > 21.5 µM | – | 92.4 µM | – | > 100 µM | – | 1.68 µM | – | 8.82 µM
Nc1ccc(C(=O)N/C(=C\c2cccc([N+](=O)[O-])c2)c2nc3[nH]c(=S)[nH]c(=O)c3[nH]2)cc1 | – | 32.1 µM | – | > 100 µM | – | > 100 µM | – | > 100 µM | – | > 94.5 µM | – | > 100 µM | – | > 93.1 µM | – | > 100 µM | – | > 100 µM | – | > 100 µM
COc1ccc(/C(COc2ccc3oc(-c4ccccc4)cc(=O)c3c2)=N\O)cc1 | 1.3 µM | 23.2 µM | 0.149 µM | 9.75 µM | < 0.005 µM | < 0.005 µM | 10.4 µM | > 29.9 µM | 0.182 µM | 9.17 µM | 0.346 µM | > 50 µM | 8.57 µM | > 36.5 µM | < 0.005 µM | 11.6 µM | 0.0245 µM | 1.89 µM | 0.189 µM | 9.75 µM
CC1CC[P+](c2ccccc2)(c2ccccc2)c2c1ccc1ccccc21 (centres undefined) | – | 6.05 µM | 11.4 µM | > 100 µM | – | 16.4 µM | – | > 100 µM | 8.98 µM | > 45 µM | – | 42.1 µM | – | 97.4 µM | – | > 100 µM | – | 14.8 µM | – | 9.78 µM
O=C(Nc1ccccc1)Nc1ccc2cc3ccc(NC(=O)Nc4ccccc4)cc3nc2c1 | 1.97 µM | 3.73 µM | 3.98 µM | 9.12 µM | 1.68 µM | 3.15 µM | 1.12 µM | 2.42 µM | 1.4 µM | 2.8 µM | 0.276 µM | 0.828 µM | 1.58 µM | 3.05 µM | 1.08 µM | 3.14 µM | 1.47 µM | 4.07 µM | 1.48 µM | 3.3 µM
COC(=O)c1ccc(CN2C(=O)C(Cl)=C(Nc3cccc(Cl)c3C)C2=O)cc1 | 14.8 µM | 95 µM | 47.8 µM | > 100 µM | 7.89 µM | 37.9 µM | 26.5 µM | > 100 µM | 6.15 µM | 47.3 µM | 3.32 µM | > 100 µM | > 100 µM | > 100 µM | 35.6 µM | > 100 µM | 4.03 µM | > 100 µM | 10.3 µM | > 100 µM
CCc1ccc(CCC(=O)Nc2ncc(Cc3ccc(Cl)cc3)s2)o1 | 0.195 µM | 0.771 µM | – | > 100 µM | 0.147 µM | 0.366 µM | > 100 µM | > 100 µM | 0.699 µM | > 100 µM | 0.352 µM | > 100 µM | 0.463 µM | > 100 µM | 0.328 µM | > 100 µM | 0.377 µM | > 100 µM | 1.53 µM | > 100 µM
Cc1cccc2nc3ccccc3c(Nc3ccc(NS(C)(=O)=O)cc3)c12 | 13 µM | 52.2 µM | 6.58 µM | 21 µM | 13.5 µM | 34.2 µM | 13 µM | 49.5 µM | 9.57 µM | 24.2 µM | 3.26 µM | 12.2 µM | 6.98 µM | 56.2 µM | 3.62 µM | 21.7 µM | 6.19 µM | 22.4 µM | – | –
